Paper PMC2195891 (2006)

System: human telomeric quadruplex (Htelo), 5'-biotin SPR strand (DNA, G4) GTTAGGGTTAGGGTTAGGGTTAGGGTTAGG
Assay: SPR, equilibrium response
Conditions: K+ 100 mM (KCl), 50 mM Tris-HCl pH 7.4

| SMILES | KD (up to 6.25 μM) [µM] | KD (up to 25 μM) [µM] |
| --- | --- | --- |
| C[n+]1ccc(-c2c3nc(cc4ccc([nH]4)c(-c4cc[n+](C)cc4)c4nc(cc5ccc2[nH]5)C=C4)C=C3)cc1 | 0.83 ± 0.10 | – |
| C[n+]1ccc(-c2c3nc(c(-c4cc[n+](C)cc4)c4ccc([nH]4)c(-c4cc[n+](C)cc4)c4nc(c(-c5cc[n+](C)cc5)c5ccc2[nH]5)C=C4)C=C3)cc1 | 0.63 ± 0.08 | – |
| C[n+]1ccc(-c2c3nc(c(-c4cc[n+](C)cc4)c4ccc([nH]4)c(-c4cc[n+](C)cc4)c4nc(cc5ccc2[nH]5)C=C4)C=C3)cc1 | – | 5.88 ± 0.90 |
| C[n+]1ccc(-c2c3nc(c(-c4cc[n+](C)cc4)c4ccc(cc5nc(cc6ccc2[nH]6)C=C5)[nH]4)C=C3)cc1 | – | 18.90 ± 2.80 |
